Blank lines part the entries; values can stand above or below the compound they belong to.
Legend:
[1] = cited from earlier work
[2] = tested on: relapsing MS; conditions: Polman et al. 2005; cited from earlier work
[3] = tested on: acute experimental autoimmune encephalomyelitis (aEAE) model; conditions: U.S. Pat. No. 6,077,851; cited from earlier work
[4] = formation of MEG-LAQ in LAQ formulation containing meglumine (stability); assay type: physicochemical; conditions: meglumine used in LAQ formulation
Protocol: MEG-LAQ may form under certain conditions when meglumine is used in LAQ formulation. For example, MEG-LAQ is formed at 40° C. and 75% Relative Humidity (accelerated conditions). MEG-LAQ is also formed at room temperature at <0.1%.

Compound: CCN(C(=O)c1c(O)c2c(Cl)cccc2n(C)c1=O)c1ccccc1 [Laquinimod sodium]
oral bioavailability [1]: high oral bioavailability

Compound: CCN(C(=O)c1c(O)c2c(Cl)cccc2n(C)c1=O)c1ccccc1 [Laquinimod, N-ethyl-N-phenyl-1,2-dihydro-4-hydroxy-5-chloro-1-methyl-2-oxoquinoline-3-carboxamide]
development of active MRI lesions [2]: can reduce development of active MRI lesions | effectiveness in the aEAE model [3]: effective

MEG-LAQ formed in LAQ formulation ([4]; 40° C. and 75% Relative Humidity (accelerated conditions)): formed | MEG-LAQ formed in LAQ formulation ([4]; room temperature): < 0.1%
Compound: CCN(C(=O)c1c(O)c2c(N(C)C[C@H](O)[C@@H](O)[C@H](O)[C@H](O)CO)cccc2n(C)c1=O)c1ccccc1 [MEG-LAQ, N-ethyl-4-hydroxyl-1-methyl-5-(methyl(2,3,4,5,6-pentahydroxyhexyl)amino)-2-oxo-N-phenyl-1,2-dihydroquinoline-3-carboxamide]
